Reference: PMC10765884, “MC180295 is a highly potent and selective CDK9 inhibitor with preclinical in vitro and in vivo efficacy in cancer” (Clinical Epigenetics, 2024)

How the values were obtained:
HT29 cells = assay: HT29 colon cancer xenograft in NSG mice; format: in vivo; settings: HT29 s.c. in NSG mice, 20 mg/kg i.p. q.o.d.
Method: Fig. 3 Antitumor, survival, and metabolic effects of MC180295 and its enantiomers, MC180379 and MC180380. A Antitumor effects of MC180295, MC180379, and MC180380. NSG mice were inoculated (s.c.) with 2 × 10^6 SW48 cells. Eleven days later, when tumors were palpable, 20 mg/kg MC180295, MC180379, MC180380, or vehicle were administered (i.p.) every other day (q.o.d.). Tumor sizes were measured using a caliper. […] C Antitumor effects of MC180379 and MC180380. NSG mice were inoculated (s.c.) with 1 × 10^6 HT29 cells. Twelve days later, when tumors were palpable, 20 mg/kg MC180379, MC180380, or vehicle were administered (i.p.) q.o.d. Tumor sizes were measured using a caliper. D HT29-xenografted mouse survival following (i.p.) q.o.d. dosing with 20 mg/kg MC180379 or MC180380. E NSG mice were inoculated (i.p.) with 5 × 10^5 MV4-11-luc cells. Four days later, when substantial tumor burden was evident by bioluminescence imaging, MC180379, MC180380, or vehicle were administered (i.p.) q.o.d at 20 mg/kg. Luciferase expression was quantified and calculated. F Mouse survival in days. […] G In vitro liver microsome stability and rat hepatocyte/Sprague–Dawley stability assay comparing MC180379 to MC180380. The dog breed was beagle and the mouse microsome strain was CD-1. […] Significances were calculated using log-rank (Mantel-Cox) or Student’s t tests. […]

CT26.CL25 cells = assay: CT26.CL25 colon cancer model in B6 mice with/without CD8 depletion; format: in vivo; settings: CT26.CL25 s.c. in B6 mice, MC180295 20 mg/kg i.p. q.o.d., DAC 0.5 mg/kg i.p. daily
Method: Fig. 5 Survival and antitumor effects of MC180295, DAC, or their combination, with/without CD8 + T cells. A 20 mg/kg MC180295 was administered (i.p.) q.o.d. 0.5 mg/kg DAC was administered (i.p.) daily. Mouse survival in days. B Survival of B6 mice, after CD8 depletion, using an anti-CD8 antibody. 20 mg/kg MC180295 was administered (i.p.) q.o.d. 0.5 mg/kg DAC was administered (i.p.) daily. C Antitumor effects of MC180295 with and without CD8 depletion, using an anti-CD8 antibody. B6 mice were inoculated (s.c.) with 5 × 10^5 CT26.CL25 cells. Eight days later, when tumors were palpable, 20 mg/kg MC180295 was administered (i.p.) q.o.d. 0.5 mg/kg DAC was administered (i.p.) daily. Tumor sizes were measured using a caliper and calculated over vehicle. D Antitumor effects of DAC, with and without CD8 depletion, using an anti-CD8 antibody. B6 mice were inoculated (s.c.) with 5 × 10^5 CT26.CL25 cells. Eight days later, when tumors were palpable, 20 mg/kg MC180295 was administered (i.p.) q.o.d. 0.5 mg/kg DAC was administered (i.p.) daily. Tumor sizes were measured using a caliper and calculated over vehicle. E Antitumor effects of DAC + MC180295, with and without CD8 depletion, using an anti-CD8 antibody. B6 mice were inoculated (s.c.) with 5 × 10^5 CT26.CL25 cells. Eight days later, when tumors were palpable, 20 mg/kg MC180295 was administered (i.p.) q.o.d. 0.5 mg/kg DAC was administered (i.p.) daily. Tumor sizes were measured using a caliper and calculated over vehicle. Significances were calculated using log-rank (Mantel-Cox) or Student's T tests. Data shown as means ± SEMs
For the s.c. SW48 model, 2 × 10^6 cells were injected into the flanks of randomly assigned, gender-matched 8–10-week-old NSG mice. 20 mg/kg MC180379, MC180380, or MC180295 was injected (i.p.), every other day, when the tumors were palpable, 11 days after engraftment, until endpoints were met. Mice were sacrificed before tumor volumes exceeded 400 mm^2 (endpoint for this model). For the s.c. HT29 model, 2 × 10^6 cells were injected into the flanks of randomly assigned, gender-matched, 8–10-week-old NSG mice. […]

CDK9/cyclin T = CDK9/cyclin T (Homo sapiens, UniProt P50750); assay: CDK9/cyclin T inhibition, two independent assays; format: biochemical
CDK9/cyclin T, sequence (O60563 whole entry): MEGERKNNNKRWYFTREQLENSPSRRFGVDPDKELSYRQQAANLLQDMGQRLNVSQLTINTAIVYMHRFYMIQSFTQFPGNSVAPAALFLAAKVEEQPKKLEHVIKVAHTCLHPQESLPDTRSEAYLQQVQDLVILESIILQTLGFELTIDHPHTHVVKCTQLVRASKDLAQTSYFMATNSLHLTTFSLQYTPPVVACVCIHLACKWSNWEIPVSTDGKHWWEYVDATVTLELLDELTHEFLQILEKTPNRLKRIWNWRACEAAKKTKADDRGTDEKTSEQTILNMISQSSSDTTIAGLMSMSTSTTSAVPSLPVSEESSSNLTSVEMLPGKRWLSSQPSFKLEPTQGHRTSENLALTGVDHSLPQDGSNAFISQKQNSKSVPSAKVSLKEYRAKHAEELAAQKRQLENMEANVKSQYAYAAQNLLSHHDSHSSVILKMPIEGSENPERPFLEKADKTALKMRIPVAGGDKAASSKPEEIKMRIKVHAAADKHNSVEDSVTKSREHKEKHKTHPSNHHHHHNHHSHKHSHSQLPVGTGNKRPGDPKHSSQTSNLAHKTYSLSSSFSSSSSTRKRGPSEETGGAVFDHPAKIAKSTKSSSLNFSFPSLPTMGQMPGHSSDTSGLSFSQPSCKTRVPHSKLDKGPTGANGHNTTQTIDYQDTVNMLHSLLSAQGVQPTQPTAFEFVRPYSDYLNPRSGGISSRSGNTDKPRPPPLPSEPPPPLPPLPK
CDK9/cyclin T, sequence (P50750 whole entry): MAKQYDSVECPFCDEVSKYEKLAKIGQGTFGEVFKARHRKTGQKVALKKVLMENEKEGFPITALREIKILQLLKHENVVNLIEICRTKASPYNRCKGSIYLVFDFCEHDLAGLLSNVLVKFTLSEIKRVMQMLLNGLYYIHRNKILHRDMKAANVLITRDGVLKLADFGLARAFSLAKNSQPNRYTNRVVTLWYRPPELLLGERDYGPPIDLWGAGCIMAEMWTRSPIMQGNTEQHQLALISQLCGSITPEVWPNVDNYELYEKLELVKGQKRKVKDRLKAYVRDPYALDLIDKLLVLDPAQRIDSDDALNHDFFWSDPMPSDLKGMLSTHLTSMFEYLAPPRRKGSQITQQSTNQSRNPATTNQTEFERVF
Method: CDK enzymatic assays were performed by Reaction Biology Corp. (Malvern, PA), using 10 µM ATP for determining MC180295 IC50 values for each CDK family member for which assays were available. Kinase enzymatic assays were also performed by Nanosyn (Santa Clara, CA), using microfluidic technology and MC180295 IC50 curves against 10 CDKs. Selectivity against CDK9 was confirmed for the enantiomers at Reaction Biology Corp. (Malvern, PA).

Row | Structure (SMILES) | survival (HT29 cells) | survival (CT26.CL25 cells) | tumor size (CT26.CL25 cells) | selectivity for CDK9, compared to other CDKs (CDK9/cyclin T) [fold] | IC50 (CDK9/cyclin T; based on two independent assays, read-out: IC50 toward CDK9/cyclin T) [nM]
1 | Nc1nc(N[C@H]2C[C@@H]3CC[C@H]2C3)sc1C(=O)c1ccccc1[N+](=O)[O-] [MC180380] | extending survival longer than MC180379 | – | – | – | –
2 | Nc1nc(N[C@H]2C[C@@H]3CC[C@H]2C3)sc1C(=O)c1ccccc1[N+](=O)[O-] (relative stereo) [MC180295] | – | extended survival | significantly decreased tumor size | 20 | 3 to 12
